According to PMC9293083 (Chemistry (Weinheim an Der Bergstrasse, Germany), 2021):

Experiments:
A549 cells = type: cell-based, human
[1] = system: lung mouse embryonic fibroblasts (LMEFs); type: cell-based; conditions: 10 μM, 22 h
A549 (lung carcinoma) [2] = system: A549 (lung carcinoma)
pBR322 plasmid DNA = type: binding
A549 (lung carcinoma) [3] = conditions: read-out: IC50 A549; cited from earlier work
HeLa (cervix carcinoma) = conditions: read-out: IC50 HeLa; cited from earlier work
tubulin = type: cell-based, human

Question: With CN(C)c1ccc(-c2nc3ccccc3s2)cc1 [Me2N‐pbtH, 2‐(4‐dimethylaminophenyl)benzothiazole] as the compound, how does the “cellular internalization (intracellular green fluorescence)” value (A549 cells) read?
Answer: The value was “successful internalization”.

Question: What about the “colocalization with Golgi apparatus marker BODIPY TR C5 ceramide” value (A549 cells) of the same compound?
Answer: Its value is “most of the signal colocalized with the Golgi apparatus marker”.

Question: What about the “time to bright green fluorescence (internalization)” value (A549 cells) of the same compound?
Answer: Its value is 2 to 5 min.

Question: And the “accumulation in endosomal/lysosomal compartments (LysoTracker)” value [1]?
Answer: Its value is “minor accumulation in the endosomal/lysosomal compartments”.

Question: And the “accumulation in mitochondria (MitoTracker)” value [1]?
Answer: Its value is “lack of accumulation in mitochondria”.

Question: And the “cytotoxic effects against A549 cells” value (A549 (lung carcinoma) [2])?
Answer: The value was “did not show cytotoxic effects”.

Question: For N.N.[Cl][Pt][Cl] [cisplatin, reference compound], which “electrophoretic mobility of plasmid forms” value (pBR322 plasmid DNA) is on record?
Answer: The value was “electrophoretic shift”.

Question: And the IC50 (A549 (lung carcinoma) [3])?
Answer: Its IC50 is 6.45 ± 0.47 µM.

Question: And the IC50 (HeLa (cervix carcinoma))?
Answer: Its IC50 is 13.6 ± 0.99 µM.

Question: With COC(=O)Nc1nc2ccc(C(=O)c3cccs3)cc2[nH]1 [nocodazole, reference compound] as the compound, how does the “tubulin depolymerization / microtubule disassembly” value (tubulin) read?
Answer: Its value is “notable microtubule disassembly”.
